# Values of other authors as cited in publication PMC10720383, “Acetylcholinesterase Inhibition in Rats and Humans Following Acute Fenitrothion Exposure Predicted by Physiologically Based Kinetic Modeling-Facilitated Quantitative In Vitro to In Vivo Extrapolation” (Environmental Science & Technology, 2023).
# Read-outs that look alike come from different tables or passages of the source.
# Assays:
# [1] = not clear if experimental or in silico, cited from earlier work
# [2] = assumed default for neutral and acidic compounds, no experimental data; cited from earlier work
# [3] = rats; diazinon constant used for FNT; cited from earlier work
# [4] = humans; diazinon constant used for FNT; cited from earlier work
SMILES,"LogP, reported data ([1]; ref OECD 1994)","pKa, reported data ([1]; ref Shahpoury et al. 2018)",blood plasma ratio (BPr) [2],absorption rate constant from intestine to liver (kaI) [3] [h⁻¹],absorption rate constant from stomach to liver (kaS) [3] [h⁻¹],transfer rate constant from stomach to intestine (ksI) [3] [h⁻¹],absorption rate constant from intestine to liver (kaI) [4] [h⁻¹],absorption rate constant from stomach to liver (kaS) [4] [h⁻¹],transfer rate constant from stomach to intestine (ksI) [4] [h⁻¹]
"Cc1cc(O)ccc1[N+](=O)[O-] [MNP, 3-methyl-4-nitrophenol]",2.12,7.33,0.55,–,–,–,–,–,–
CCOP(=S)(OCC)Oc1cc(C)nc(C(C)C)n1 [diazinon],–,–,–,0.59,0.1,0.48,0.59,0.32,0.48
